In patent US20250296953A1, “3,4-THIAZOLO-STEROIDS AND METHODS OF MAKING AND USING THE SAME” (Arkansas State University - Jonesboro, priority 2018, published 2025):
Read-outs that look alike come from different tables or passages of the source.

Legend:
[1] = tested on: 60 different human tumor cell lines; test: NCI Development Therapeutics Program 60 cell line screen, one dose; assay type: cell-based
SR = test: NCI 60 five dose screen; settings: SR (Leukemia), five dose
glioblastoma (SF-295) = test: NCI 60 five dose screen; settings: SF-295 (CNS Cancer), five dose
NCI-H522 (NSCLC) = test: NCI 60 one dose screen; assay type: cell-based, human; settings: Non-small Cell Lung Cancer
HCT-15 (Colon Cancer) = test: NCI 60 one dose screen; assay type: cell-based, human
[2] = tested on: 60 different human tumor cell lines; settings: for GI50 / TGI: five dose
[3] = A549/ATCC (Non-small Cell Lung Cancer)
[4] = EKVX (Non-small Cell Lung Cancer)
[5] = HOP-62 (Non-small Cell Lung Cancer)
[6] = HOP-92 (Non-small Cell Lung Cancer)

## C[C@]12CCc3nc(Nc4ccc(O)cc4)sc3C1=CC[C@@H]1[C@@H]2CC[C@]2(C)C(=O)CC[C@@H]12 [IIa.35]
[1]; Breast Cancer, BT-549
  Growth Percent: 45.59%
[1]; Breast Cancer, HS 578T
  Growth Percent: 53.60%
[1]; Breast Cancer, MCF7
  Growth Percent: 3.11%
[1]; Breast Cancer, MDA-MB-231/ATCC
  Growth Percent: 35.27%
[1]; Breast Cancer, MDA-MB-468
  Growth Percent: −36.91%
[1]; Breast Cancer, T-47D
  Growth Percent: 10.57%
[1]; CNS Cancer, SF-268
  Growth Percent: 58.35%
[1]; CNS Cancer, SNB-19
  Growth Percent: 64.60%
[1]; CNS Cancer, SNB-75
  Growth Percent: 41.74%
[1]; CNS Cancer, U251
  Growth Percent: 19.48%
[1]; Colon Cancer, COLO 205
  Growth Percent: 38.45%
[1]; Colon Cancer, HCC-2998
  Growth Percent: 97.70%
[1]; Colon Cancer, HCT-116
  Growth Percent: −72.37%
[1]; Colon Cancer, HT29
  Growth Percent: 10.26%
[1]; Colon Cancer, KM12
  Growth Percent: 46.68%
[1]; Colon Cancer, SW-620
  Growth Percent: −32.15%
[1]; Leukemia, CCRF-CEM
  Growth Percent: 8.33%
[1]; Leukemia, HL-60(TB)
  Growth Percent: 8.98%
[1]; Leukemia, K-562
  Growth Percent: 10.77%
[1]; Leukemia, MOLT-4
  Growth Percent: 10.99%
[1]; Leukemia, RPMI-8226
  Growth Percent: −24.54%
[1]; Leukemia, SR
  Growth Percent: 9.60%
[1]; Melanoma, LOX IMVI
  Growth Percent: −8.01%
[1]; Melanoma, M14
  Growth Percent: 58.13%
[1]; Melanoma, MALME-3M
  Growth Percent: 29.71%
[1]; Melanoma, MDA-MB-435
  Growth Percent: 35.34%
[1]; Melanoma, SK-MEL-2
  Growth Percent: 72.46%
[1]; Melanoma, SK-MEL-5
  Growth Percent: 62.03%
[1]; Melanoma, SK-MEL-28
  Growth Percent: 77.86%
[1]; Melanoma, UACC-62
  Growth Percent: 55.82%
[1]; Melanoma, UACC-257
  Growth Percent: 73.38%
[1]; Non-small Cell Lung Cancer, A549/ATCC
  Growth Percent: 79.28%
[1]; Non-small Cell Lung Cancer, EKVX
  Growth Percent: 98.04%
[1]; Non-small Cell Lung Cancer, HOP-62
  Growth Percent: 92.69%
[1]; Non-small Cell Lung Cancer, HOP-92
  Growth Percent: 125.71%
[1]; Non-small Cell Lung Cancer, NCI-H23
  Growth Percent: 70.16%
[1]; Non-small Cell Lung Cancer, NCI-H226
  Growth Percent: 102.70%
[1]; Non-small Cell Lung Cancer, NCI-H322M
  Growth Percent: 93.36%
[1]; Non-small Cell Lung Cancer, NCI-H460
  Growth Percent: 65.57%
[1]; Ovarian Cancer, IGROV1
  Growth Percent: 13.07%
[1]; Ovarian Cancer, NCI/ADR-RES
  Growth Percent: 68.59%
[1]; Ovarian Cancer, OVCAR-3
  Growth Percent: −31.67%
[1]; Ovarian Cancer, OVCAR-4
  Growth Percent: 57.12%
[1]; Ovarian Cancer, OVCAR-5
  Growth Percent: 116.69%
[1]; Ovarian Cancer, OVCAR-8
  Growth Percent: 35.92%
[1]; Ovarian Cancer, SK-OV-3
  Growth Percent: 107.77%
[1]; Prostate Cancer, DU-145
  Growth Percent: 10.45%
[1]; Prostate Cancer, PC-3
  Growth Percent: 39.10%
[1]; Renal Cancer, 786-0
  Growth Percent: −3.03%
[1]; Renal Cancer, A498
  Growth Percent: 100.87%
[1]; Renal Cancer, ACHN
  Growth Percent: −17.29%
[1]; Renal Cancer, CAKI-1
  Growth Percent: 47.13%
[1]; Renal Cancer, RXF 393
  Growth Percent: −16.18%
[1]; Renal Cancer, SN12C
  Growth Percent: 30.38%
[1]; Renal Cancer, TK-10
  Growth Percent: 22.82%
[1]; Renal Cancer, UO-31
  Growth Percent: −48.83%
SR
  GI50: 2720 nM
  TGI: >1.00E−4
SR; read-out: LC50
  CC50: > 100000 nM
Glioblastoma (SF-295)
  GI50: 5260 nM
  TGI: 3.59E−5
Glioblastoma (SF-295); read-out: LC50
  CC50: > 100000 nM
NCI-H522 (NSCLC)
  Growth Percent: −55.25%
HCT-15 (Colon Cancer)
  Growth Percent: −67.96%
[2]
  CC50: > 100000 nM
[2]; 786-0 (Renal Cancer)
  GI50: 1800 nM
  TGI: 3.82
[2]; A498 (Renal Cancer)
  GI50: 14200 nM
  TGI: 8.06E−5
[2]; [3]
  GI50: 4420 nM
  TGI: >1.00E−4
[2]; ACHN (Renal Cancer)
  GI50: 2920 nM
  TGI: 9.29E−6
[2]; BT-549 (Breast Cancer)
  GI50: 3130 nM
  TGI: >1.00E−4
[2]; CAKI-1 (Renal Cancer)
  GI50: 1930 nM
  TGI: 3.97E−6
[2]; CCRF-CEM (Leukemia)
  GI50: 2470 nM
  TGI: >1.00E−4
[2]; COLO 205 (Colon Cancer)
  GI50: 2000 nM
  TGI: 3.90E−6
[2]; DU-145 (Prostate Cancer)
  GI50: 1660 nM
  TGI: 3.14E−6
[2]; [4]
  GI50: 10400 nM
  TGI: 4.00E−4
[2]; HCC-2998 (Colon Cancer)
  GI50: 4110 nM
  TGI: >1.00E−4
[2]; HCT-15 (Colon Cancer)
  GI50: 1660 nM
  TGI: 4.40E−6
[2]; HCT-116 (Colon Cancer)
  GI50: 1900 nM
[2]; HL-60(TB) (Leukemia)
  GI50: 2570 nM
  TGI: 7.27E−6
[2]; [5]
  GI50: 3280 nM
  TGI: 1.26E−5
[2]; [6]
  GI50: 2390 nM
  TGI: 5.65E−6
[2]; HS 578T (Breast Cancer)
  GI50: 3380 nM
  TGI: >1.00E−4
[2]; HT29 (Colon Cancer)
  GI50: 2130 nM
  TGI: 5.59E−6
[2]; IGROV1 (Ovarian Cancer)
  GI50: 1990 nM
  TGI: 5.02E−6
[2]; K-562 (Leukemia)
  GI50: 2960 nM
  TGI: >1.00E−4
[2]; KM12 (Colon Cancer)
  GI50: 1930 nM
  TGI: 4.06E−6
[2]; LOX IMVI (Melanoma)
  GI50: 1580 nM
  TGI: 3.04E−6
[2]; M14 (Melanoma)
  GI50: 2680 nM
[2]; MALME-3M (Melanoma)
  GI50: 1810 nM
  TGI: 4.03E−6
[2]; MCF7 (Breast Cancer)
  GI50: 1660 nM
